Experimental data: publication PMC9224512, “New Insights into the Determinants of Specificity in Human Type I Arginase: Generation of a Mutant That Is Only Active with Agmatine as Substrate” (International Journal of Molecular Sciences, 2022)
Positions count from the first letter of the chain named. “And” between values parts separate entries of the source, which are not always exact repeats. Identical values can stand only once.

Columns and labels:
Type in all cases: biochemical
[1] = biological target: T1, human arginase type I N139D (Homo sapiens, UniProt P05089, N139D); assay: Kinetic and inhibition studies, N139D mutant
T1 sequence (P05089 1-322 N139D): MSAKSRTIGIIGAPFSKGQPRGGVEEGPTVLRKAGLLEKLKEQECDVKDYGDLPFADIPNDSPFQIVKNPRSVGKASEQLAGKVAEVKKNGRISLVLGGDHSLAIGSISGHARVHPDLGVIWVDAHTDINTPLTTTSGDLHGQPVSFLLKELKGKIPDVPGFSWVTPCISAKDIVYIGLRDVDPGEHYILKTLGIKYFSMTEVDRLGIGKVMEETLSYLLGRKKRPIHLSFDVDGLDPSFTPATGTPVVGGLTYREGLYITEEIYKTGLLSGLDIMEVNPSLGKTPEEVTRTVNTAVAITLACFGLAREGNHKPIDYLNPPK
Protocol: (§1) Bacterial cultures were grown with shaking at 37 °C in Luria Broth media, in the presence of ampicillin (100 μg/mL). The wild-type and mutant human liver arginase cDNAs were directionally cloned into the pBluescript II KS(+) expression vector and then expressed in E. coli JM109, following induction with 1 mM isopropyl β-D-thiogalactopyranoside. The bacterial cells were disrupted by sonication on ice (5 × 30 s pulses), centrifuged for 20 min at 12,000× g, and the obtained supernatant was precipitated with ammonium sulfate (60% saturation). The pellet, collected by centrifugation at 12,000× g for 10 min, was re-suspended in buffer 5 mM Tris–HCl (pH 7.5) containing 2 mM MnCl2 and dialyzed for 6 h at 4 °C against the same buffer. After incubation with 5 mM MnCl2 for 10 min at 60 °C, the enzyme variants were purified as previously described. The purity of the enzymes was evaluated by SDS–PAGE stained by Coomassie blue and immunodetection using an anti- rat arginase I antibody.
(§2) The single, double, triple, and chimera variants of human arginase type I were obtained by PCR, using the QuickChange site-directed mutagenesis kit (Stratagene, La Jolla, CA, USA); the plasmid pBluescript II KS(+) containing the human liver arginase cDNA was used as template. To obtain the chimeric species of human arginase type I, serial mutations were made in each loop to be modified, using as template DNA the wild-type arginase gene or the previous done mutation, subcloned in the plasmid pBluescript II KS (+). Specifically, the residues present in the arginase structure were replaced by those corresponding to the agmatinase sequence of E. coli.
(§3) All assays were initiated by adding the enzyme to a previously equilibrated buffer with the substrate in solution (the concentrations of used substrates were between 0.2–3 fold the Km). Urea was determined by a colorimetric method with α-isonitrosopropiophenone. The protein concentrations were determined by the Bradford’s method, with bovine serum albumin as standard. Initial velocity and enzymatic inhibition experiments were performed in duplicate and repeated three times. The inhibitory patterns were initially determined by double reciprocal plots and re-plots of intercepts and slopes versus inhibitor concentrations. […] Velocities are expressed as μmol of urea/10 min.

[2] = biological target: T2, type I human arginase D181T/V182E (Homo sapiens, UniProt P05089, D181T/V182E); assay: Kinetic and inhibition studies, D181T/V182E double mutant; settings: substrate arginine
T2 construct: made in house; host or cells: E. coli JM109
T2 sequence (P05089 1-322 D181T/V182E): T1 sequence (P05089 1-322 N139D) with D139N, D181T, V182E
Protocol: as §1, §2, §3

[3] = biological target: T3, Chimera A2 (I129T/N130Y/T131A+∆ P132-T134) of human arginase type I (Homo sapiens, UniProt P05089, DEL129-131/I129T/L133Y/N130Y/P132T/T134A); assay: Kinetic and inhibition studies, Chimera A2
T3 construct: made in house; host or cells: E. coli JM109
T3 sequence (P05089 with tags, fused parts or gaps DEL129-131/P132T/L133Y/T134A): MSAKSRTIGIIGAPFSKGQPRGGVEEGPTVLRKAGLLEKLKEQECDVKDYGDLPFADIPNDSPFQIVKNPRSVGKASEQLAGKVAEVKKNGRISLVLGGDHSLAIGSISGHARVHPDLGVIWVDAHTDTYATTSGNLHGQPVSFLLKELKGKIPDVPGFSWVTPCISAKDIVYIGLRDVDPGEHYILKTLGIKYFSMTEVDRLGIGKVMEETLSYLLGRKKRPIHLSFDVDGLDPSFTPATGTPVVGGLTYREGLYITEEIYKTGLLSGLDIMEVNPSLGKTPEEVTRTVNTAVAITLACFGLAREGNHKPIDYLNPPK
Protocol: as §1, §2, §3

[4] = biological target: T4, type I human arginase V182E (Homo sapiens, UniProt P05089, V182E); assay: Kinetic and inhibition studies, V182E mutant; settings: substrate arginine
T4 sequence (P05089 1-322 V182E): T1 sequence (P05089 1-322 N139D) with D139N, V182E
Protocol: as §1, §2, §3

[5] = biological target: T5, WT-arginase (human arginase type I) (Homo sapiens, UniProt P05089); assay: Kinetic and inhibition studies, wild-type human arginase type I
T5 construct: made in house; host or cells: E. coli JM109
T5 sequence (P05089 1-322): T1 sequence (P05089 1-322 N139D) with D139N
Protocol: as §1, §3

[6] = substrate = labelled compound, pH 9.5, 2 mM Mn2+

`N=C(N)NCCC[C@H](N)C(=O)O` [Arginine, L-arginine] gave a kcat ([1]; substrate = labelled compound) of 64 s⁻¹, a Km [1, 6] of 4.4 mM and a kcat [2] of 188 ± 10 s⁻¹. The Km ([2]; pH 9.5, 2 mM Mn2+) was 32 ± 5 mM, the “Inhibition type” value ([3]; substrate agmatine) was “linear competitive inhibition” and the Kis ([3]; substrate agmatine) was 9 ± 3 mM. It also gave a kcat [4] of 187 ± 10 s⁻¹, a Km ([4]; pH 9.5, 2 mM Mn2+) of 2.4 ± 0.2 mM and a Km [5, 6] of 1.5 mM. For the same molecule, the kcat ([5]; substrate = labelled compound, pH 9.5, 2 mM Mn2+, n/a = no activity with the substrate) was 190 s⁻¹ and 190 ± 10 s⁻¹.
In the case of `NCCC[C@H](N)C(=O)O` [Ornithine, L-ornithine], the Ki ([1]; read-out: Ki^orn) is reported as 6.2 mM, the Inhibition type [2] is reported as “mixed-type inhibition” and the “Kis (Ki)” value [2] is reported as 71 ± 12 mM. For the same molecule, the “Inhibition by ornithine compared with wild-type arginase” value ([3]; pH 9.5, 37 °C, substrate 5 mM, Figure 4A) was “much more insensitive to inhibition by ornithine than the wild-type arginase”, the Inhibition type [4] was “Competitive” and the Kis [4] was 3.2 ± 0.2 mM. For the same molecule, the “Inhibition type” value ([5]; substrate arginine) was “Competitive” and the “Kis (Ki)” value ([5]; substrate arginine, pH 9.5) was 2 ± 0.5 mM.
